Measured values: patent US20260263431A1, “ARYL HYDROCARBON RECEPTOR AGONIST PRODRUGS AND METHODS OF USE THEREOF” (Allianthera (Suzhou) Biopharmaceutical Co., Ltd., priority 2022, published 2026)

Key:
[1] = Caco-2 permeability assay (AB); type: in vitro ADME; conditions: human, apical to basolateral
Experimental: (§1) Compounds were tested under typical Caco-2 and S9 assay conditions.

S9 stability assay = type: in vitro ADME; conditions: read-out: mouse S9 Clint
Experimental: as §1

[2] = In vitro anaerobic metabolism in mouse fecal homogenate; type: in vitro ADME; conditions: 20 μM, anaerobic 37° C.
Experimental: (§2) The ability of the compounds of Formula (I) to release the active compound in the small or large intestine is assessed by introducing representative compounds of the disclosure to the contents of either a rodent small intestine or a rodent large intestine for up to 24 hours at 37° C. The amount of active drug released after the incubation period is determined by LC-MS/MS. Additional studies are conducted by incubating representative compounds of the disclosure with human fecal samples.
(§3) In Vitro Anaerobic Metabolism in Fecal Homogenates (vs. Control)
(§4) Compound 1 was dissolved in PBS (pH 7.4) to provide a 200 μM working solution. An aliquot of 50 μL volume was spiked to each 450 μL fecal homogenate incubation sample to provide an incubation concentration at 20 μM.
(§5) An estimated 1 g to 2 g wet weight of fecal material from healthy mice and rats (separately) was immediately collected in a pre-labelled 50 mL EP tube and stored at ambient room temperature. Based on the weight of each fecal material, a dilution with 0.01 M isotonic phosphate buffer (pH 7.0) is performed to provide a 12.5× diluted fecal homogenate. All fecal materials were stored at room temperature before being used in fecal homogenate preparation.
(§6) Under anaerobic conditions, each of the fecal specimen materials collected in 0.01 M isotonic phosphate buffer (pH 7.0) was homogenized by shaking and mixing with a stirrer. Each lot of the fecal homogenate material was added with an appropriate volume of 0.01 M isotonic phosphate buffer (pH 7.0) to provide fecal homogenate at 12.5× dilution. Under anaerobic condition in a nitrogen glove box purged with high purity nitrogen to ensure <1% oxygen level, the fecal homogenate was transferred to a clean container and diluted with 3 volumes of Brain Heart Infusion Broth (BHI) to provide a 50× diluted fecal homogenate. The diluted fecal homogenate matrix at an aliquot of 0.45 mL was dispensed into 2-mL EP tube, freshly prepared Compound 1 working solutions were then spiked to the fecal homogenate sample vials for incubation over the metabolic stability time-course.
(§7) Compound 1 was incubated at a target concentration of 20 μM in each fecal homogenate over a time course of 0, 1, 2, 4, 6 and 24 hours. Metabolic incubation at each time point was performed in triplicate. Incubation of the samples was performed in 2-mL EP tube. Into each pre-labeled sample vial, 50 μL of a Compound 1 working solution was accurately dispensed followed by the addition of the 0.45 mL pre-incubated fecal homogenate. Sample were capped, vortex mixed and incubated under an anaerobic environment at 37° C. At the end of each incubation time point, 1.0 mL of IS (Internal Standard) as a stop solvent was added to each sample with vortex mixed to stop the metabolic reactions. Samples at the 0-hour time point were pre-treated with the addition of IS stop solvent prior to the spiking of fecal homogenate and Compound 1. All samples were stored at −80° C. prior to LC-MS/MS assay. Samples are analyzed by LC-MS/MS. The MS detection is performed using a Sciex API 5500+ instrument. Each compound is analyzed by reverse phase HPLC.

[3] = In vitro anaerobic metabolism in rat fecal homogenate; type: in vitro ADME; conditions: 20 μM, anaerobic 37° C.
Experimental: as §2, §3, §4, §5, §6, §7

[4] = Stability in BHI broth (vehicle stability control); type: in vitro ADME; conditions: 20 μM
AHR = molecular target: T1, AHR (Homo sapiens, UniProt P35869); experiment: AHR activity of the metabolite (reEC50 / abEC50); type: cell-based; conditions: relative to tapinarof at 1 μM
T1 sequence (P35869 11-848): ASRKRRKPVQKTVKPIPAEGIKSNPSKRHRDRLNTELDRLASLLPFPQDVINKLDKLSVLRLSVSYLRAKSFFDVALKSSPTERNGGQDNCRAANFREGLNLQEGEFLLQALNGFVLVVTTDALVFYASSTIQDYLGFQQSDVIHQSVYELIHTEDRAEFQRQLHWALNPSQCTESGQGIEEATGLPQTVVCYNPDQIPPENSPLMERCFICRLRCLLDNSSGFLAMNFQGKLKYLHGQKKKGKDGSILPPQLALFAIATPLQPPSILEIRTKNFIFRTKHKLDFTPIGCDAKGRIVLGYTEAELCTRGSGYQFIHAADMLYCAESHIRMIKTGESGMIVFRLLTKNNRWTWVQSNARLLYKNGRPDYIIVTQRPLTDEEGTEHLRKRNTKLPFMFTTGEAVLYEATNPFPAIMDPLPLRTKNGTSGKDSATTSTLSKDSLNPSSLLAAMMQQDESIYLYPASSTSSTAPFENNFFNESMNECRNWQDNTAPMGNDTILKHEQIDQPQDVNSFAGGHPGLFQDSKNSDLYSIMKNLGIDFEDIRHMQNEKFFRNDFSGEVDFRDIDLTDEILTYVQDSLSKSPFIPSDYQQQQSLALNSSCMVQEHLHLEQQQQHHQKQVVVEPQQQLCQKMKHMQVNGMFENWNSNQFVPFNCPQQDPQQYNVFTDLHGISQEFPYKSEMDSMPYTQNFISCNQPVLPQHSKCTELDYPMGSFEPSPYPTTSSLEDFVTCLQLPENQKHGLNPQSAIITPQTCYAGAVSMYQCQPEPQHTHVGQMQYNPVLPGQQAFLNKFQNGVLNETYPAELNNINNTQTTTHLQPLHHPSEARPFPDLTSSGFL
Experimental: The AHR activity of the metabolite is measured as AHR reEC50 (as % activation to tapinarof at 1 μM)—of 166.1 nM (69.5%) and a AHR abEC50 of 241.5 nM.

| Compound | Papp A→B [1] [×10⁻⁶ cm/s] | intrinsic clearance in mouse S9 (S9 stability assay) [µL/min/mg] | further results |
| --- | --- | --- | --- |
| CC(C)c1c(O)cc(-c2cc3ccccc3cn2)cc1OS(=O)(=O)O [Compound 2, [3-hydroxy-2-isopropyl-5-(isoquinolin-3-yl)phenyl]oxidanesulfonic acid] |  | 1.18 |  |
| CC(C)c1c(O)cc(-c2cnc3ccccc3c2)cc1OS(=O)(=O)O [Compound 3, [3-hydroxy-2-isopropyl-5-(quinolin-3-yl)phenyl]oxidanesulfonic acid] | 0.29 |  |  |
| CC(C)c1c(OP(=O)(O)O)cc(-c2cnc3ccccc3c2)cc1OP(=O)(O)O [Compound 4, 2-isopropyl-3-(phosphonooxy)-5-(quinolin-3-yl)phenoxyphosphonic acid] | < 0.2 | 3.43 |  |
| CC(C)c1c(O)cc(-c2cc(F)c3cnc(N)nc3c2)cc1OS(=O)(=O)O [Compound 7, [5-(2-amino-5-fluoroquinazolin-7-yl)-3-hydroxy-2-isopropylphenyl]oxidanesulfonic acid] | 0.37 |  |  |
| CC(C)c1c(O)cc(-c2ccc3cc(F)ccc3n2)cc1OS(=O)(=O)O [Compound 8, [5-(6-fluoroquinolin-2-yl)-3-hydroxy-2-isopropylphenyl]oxidanesulfonic acid] |  | 0.02 |  |
| CCCc1c(F)cc(/C=C/c2ccccc2)cc1OS(=O)(=O)O [Compound 9, {3-fluoro-5-[(E)-2-phenylethenyl]-2-propylphenyl}oxidanesulfonic acid] | 0.29 | 0.7 |  |
| Cc1ccnc2cc(-c3cc(F)c(C(C)C)c(OP(=O)(O)O)c3)ccc12 [Compound 11, 3-fluoro-2-isopropyl-5-(4-methylquinolin-7-yl)phenyl dihydrogen phosphate] |  | 0.68 |  |
| CC(C)c1ncc(/C=C/c2ccccc2)cc1O [metabolite] |  |  | % activation to tapinarof at 1 μM (AHR): 69.5% |

Further lines, with some results ahead:

| Papp A→B [1] [×10⁻⁶ cm/s] | intrinsic clearance in mouse S9 (S9 stability assay) [µL/min/mg] | Compound | further results |
| --- | --- | --- | --- |
| 0.44 | 4.91 | CC(C)c1ncc(/C=C/c2ccccc2)cc1OS(=O)(=O)O [Compound 1, {2-isopropyl-5-[(E)-2-phenylethenyl]pyridin-3-yl}oxidanesulfonic acid] | Compound 1 Conc. Average ([2]; 0 hr): 23.7 µM; Compound 1 Conc. Average ([2]; 1 hr): 21.8 µM; Compound 1 Conc. Average ([2]; 2 hr): 21.6 µM; Compound 1 Conc. Average ([2]; 4 hr): 19.2 µM; Compound 1 Conc. Average ([2]; 6 hr): 14.75 µM; Compound 1 Conc. Average ([2]; 24 hr): 0.0738 µM; Compound 1 Conc. Average ([3]; 0 hr): 25.05 µM; Compound 1 Conc. Average ([3]; 1 hr): 21.3 µM; Compound 1 Conc. Average ([3]; 2 hr): 20.55 µM; Compound 1 Conc. Average ([3]; 4 hr): 14.2 µM; Compound 1 Conc. Average ([3]; 6 hr): 3.02 µM; Compound 1 Conc. Average ([3]; 24 hr): 0.0657 µM; Compound 1 Conc. Average ([4]; 0 hr): 23.2 µM; Compound 1 Conc. Average ([4]; 24 hr): 21.9 µM |
| 0.44 | 2.64 | CC(C)c1ncc(/C=C/c2ccccc2F)cc1OS(=O)(=O)O [Compound 5, {5-[(E)-2-(2-fluorophenyl)ethenyl]-2-isopropylpyridin-3-yl}oxidanesulfonic acid] |  |
| 0.62 | 1.26 | CC(C)c1ncc(/C=C/c2ccc(F)cc2)cc1OS(=O)(=O)O [Compound 6, {5-[(E)-2-(4-fluorophenyl)ethenyl]-2-isopropylpyridin-3-yl}oxidanesulfonic acid] |  |
| 0.25 | 0.47 | CC(C)c1c(F)cc(/C=C/c2ccccc2)cc1OS(=O)(=O)O [Compound 10, {3-fluoro-2-isopropyl-5-[(E)-2-phenylethenyl]phenyl}oxidanesulfonic acid] |  |
